Data published in ChEMBL document CHEMBL3243936, “Facile syntheses of potent dopaminergic argonists and their effect on neurotransmitter release” (J Med Chem, 1978).
Calls of active or inactive are those of the source. The rule behind the calls is not given here.

Experiments:
[1] = biological target: Sodium-dependent dopamine transporter (Rattus norvegicus) (UniProt P23977); experiment: Agonist activity at Wistar rat striatum dopamine transporter assessed as tritium efflux by measuring [3H]dopamine release at 2 uM after 20 mins by liquid scintillation counting analysis relative to total tissue content
Sequence of Sodium-dependent dopamine transporter (Rattus norvegicus) (P23977 whole entry): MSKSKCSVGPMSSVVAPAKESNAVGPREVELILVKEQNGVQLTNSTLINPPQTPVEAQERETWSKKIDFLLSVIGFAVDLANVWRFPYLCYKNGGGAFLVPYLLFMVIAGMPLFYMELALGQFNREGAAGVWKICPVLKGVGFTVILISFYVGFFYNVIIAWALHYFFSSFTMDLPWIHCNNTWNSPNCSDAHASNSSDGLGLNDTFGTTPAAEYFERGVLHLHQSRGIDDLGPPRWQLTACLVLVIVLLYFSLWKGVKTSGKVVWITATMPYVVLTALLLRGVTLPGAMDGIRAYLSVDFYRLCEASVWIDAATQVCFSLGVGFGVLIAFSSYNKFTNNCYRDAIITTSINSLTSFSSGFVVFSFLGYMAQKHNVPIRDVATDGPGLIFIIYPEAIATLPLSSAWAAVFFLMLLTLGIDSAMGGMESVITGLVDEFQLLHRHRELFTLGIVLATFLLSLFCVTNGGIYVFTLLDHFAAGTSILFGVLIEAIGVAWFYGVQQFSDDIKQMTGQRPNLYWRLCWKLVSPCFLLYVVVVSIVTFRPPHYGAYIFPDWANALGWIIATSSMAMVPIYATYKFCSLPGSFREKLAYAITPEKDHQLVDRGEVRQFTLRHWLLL

[2] = biological target: Sodium-dependent dopamine transporter (Rattus norvegicus) (UniProt P23977); experiment: Agonist activity at Wistar rat cortex dopamine transporter assessed as tritium efflux by measuring [3H]noradrenaline release at 1 uM after 20 to 30 mins by liquid scintillation counting analysis in presence of nomifensine; format: tissue-based
[3] = biological target: Sodium-dependent dopamine transporter (Rattus norvegicus) (UniProt P23977); experiment: Agonist activity at Wistar rat striatum dopamine transporter assessed as tritium efflux by measuring [3H]dopamine release at 1 uM after 20 to 30 mins by liquid scintillation counting analysis in presence of nomifensine
Rattus norvegicus = species: Rattus norvegicus; experiment: Agonist activity at Wistar rat brain GABA transporter assessed as tritium efflux by measuring [3H]GABA release at 2 uM after 20 to 30 mins by liquid scintillation counting analysis relative to control
[4] = biological target: T1, Vesicular acetylcholine transporter (Rattus norvegicus) (UniProt Q62666); experiment: Agonist activity at Wistar rat brain cholinergic transporter assessed as tritium efflux by measuring [3H]choline release at 2 uM after 20 to 30 mins by liquid scintillation counting analysis relative to control
T1 sequence (whole entry): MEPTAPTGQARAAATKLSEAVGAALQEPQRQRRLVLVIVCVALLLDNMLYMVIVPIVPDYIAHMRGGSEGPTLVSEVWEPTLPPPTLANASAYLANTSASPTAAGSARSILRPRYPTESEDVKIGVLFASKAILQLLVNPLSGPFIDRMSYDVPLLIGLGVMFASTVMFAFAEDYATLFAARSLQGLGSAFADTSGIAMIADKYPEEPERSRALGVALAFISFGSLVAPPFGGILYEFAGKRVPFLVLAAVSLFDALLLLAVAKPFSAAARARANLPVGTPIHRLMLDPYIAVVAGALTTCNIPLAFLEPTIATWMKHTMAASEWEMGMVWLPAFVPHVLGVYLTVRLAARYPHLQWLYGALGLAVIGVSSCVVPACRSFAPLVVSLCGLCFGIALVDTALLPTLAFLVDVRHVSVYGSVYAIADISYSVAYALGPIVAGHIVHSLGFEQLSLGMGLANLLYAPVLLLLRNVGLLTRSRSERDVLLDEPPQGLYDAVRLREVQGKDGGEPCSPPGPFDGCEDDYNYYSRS

[5] = biological target: Sodium-dependent serotonin transporter (Rattus norvegicus) (UniProt P31652); experiment: Agonist activity at Wistar rat brain serotonin transporter assessed as tritium efflux by measuring [3H]serotonin release at 2 uM after 20 to 30 mins by liquid scintillation counting analysis relative to control
Sequence of Sodium-dependent serotonin transporter (Rattus norvegicus) (P31652 whole entry): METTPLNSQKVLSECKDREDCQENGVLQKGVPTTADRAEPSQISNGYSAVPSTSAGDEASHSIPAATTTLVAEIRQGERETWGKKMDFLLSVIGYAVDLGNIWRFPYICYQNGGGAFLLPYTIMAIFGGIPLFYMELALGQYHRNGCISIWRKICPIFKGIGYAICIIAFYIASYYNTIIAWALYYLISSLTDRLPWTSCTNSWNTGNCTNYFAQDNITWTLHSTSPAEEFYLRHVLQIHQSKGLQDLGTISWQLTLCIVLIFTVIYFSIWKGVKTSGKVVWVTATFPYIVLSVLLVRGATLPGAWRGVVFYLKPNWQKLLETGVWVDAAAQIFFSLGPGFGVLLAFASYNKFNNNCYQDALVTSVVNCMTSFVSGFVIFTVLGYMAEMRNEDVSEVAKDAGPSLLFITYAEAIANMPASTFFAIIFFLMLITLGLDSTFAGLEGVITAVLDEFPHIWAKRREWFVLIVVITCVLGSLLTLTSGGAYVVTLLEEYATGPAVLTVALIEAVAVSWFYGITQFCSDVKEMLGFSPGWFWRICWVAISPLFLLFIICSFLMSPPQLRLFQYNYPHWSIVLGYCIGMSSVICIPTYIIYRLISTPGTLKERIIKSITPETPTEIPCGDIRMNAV

NC1CCc2ccccc2C1 (stereo unspecified)
Activity [1]: -0.7%

NC1CCc2cc(O)c(O)cc2C1 (stereo unspecified)
Activity [2]: inactive | Activity [3]: inactive | Activity (Rattus norvegicus): inactive | Activity [4]: inactive | Activity [5]: inactive | Activity [1]: 25.1%

NC1CCc2c(ccc(O)c2O)C1 (stereo unspecified)
Activity (Rattus norvegicus): inactive | Activity [4]: inactive | Activity [5]: inactive | Activity [1]: 6.5%
